In brackets after ≈: the same amount, converted by molar mass.
Experiments:
[1] = system: Actinomyces naeslundii 4053; assay: Anaerobic agar dilution, Wilkens-Chalgren agar; type: cell-based; details: Actinomyces naeslundii, 4053; anaerobic, inoculum 10^6 cfu/spot, 35° C., 48 hours; read-out: MIC
Eubacterium limosum 3344 = assay: Anaerobic agar dilution, Wilkens-Chalgren agar; type: cell-based; details: inoculum 10^6 cfu/spot, 35° C., 48 hours
Description: (a) Wilkens-Chalgren agar was used instead of antagonist-free medium (Roche);
(b) The inoculum/spot was about 10^6 instead of about 10^4 ;
(c) The incubation period was for 48 hours, not 24 hours; and
(d) Incubations were performed under anaerobic conditions.

[2] = system: Propionibacterium acnes 2249; assay: Anaerobic agar dilution, Wilkens-Chalgren agar; type: cell-based; details: Cutibacterium acnes, 2249; anaerobic, inoculum 10^6 cfu/spot, 35° C., 48 hours; read-out: MIC
[3] = system: Peptostreptococcus anaerobius 3282; assay: Anaerobic agar dilution, Wilkens-Chalgren agar; type: cell-based; details: Peptostreptococcus anaerobius, 3282; anaerobic, inoculum 10^6 cfu/spot, 35° C., 48 hours; read-out: MIC
[4] = system: Clostridium perfringens NCCLS control strain 4418; assay: microbe, parasite or virus in culture; type: cell-based; details: 48 h
C. perfringens 2237 = assay: microbe, parasite or virus in culture; type: cell-based; details: Clostridium perfringens, 2237, 48 h
C. perfringens 3508 = assay: microbe, parasite or virus in culture; type: cell-based; details: Clostridium perfringens, 3508, 48 h
C. perfringens 3509 = assay: microbe, parasite or virus in culture; type: cell-based; details: Clostridium perfringens, 3509, 48 h
C. perfringens 3510 = assay: microbe, parasite or virus in culture; type: cell-based; details: Clostridium perfringens, 3510, 48 h
C. perfringens 3511 = assay: microbe, parasite or virus in culture; type: cell-based; details: Clostridium perfringens, 3511, 48 h
C. perfringens 3512 = assay: microbe, parasite or virus in culture; type: cell-based; details: Clostridium perfringens, 3512, 48 h
C. perfringens 3513 = assay: microbe, parasite or virus in culture; type: cell-based; details: Clostridium perfringens, 3513, 48 h
C. ramosum 4272 = assay: Anaerobic agar dilution, Wilkens-Chalgren agar; type: cell-based; details: Thomasclavelia ramosa, 4272; anaerobic, inoculum 10^6 cfu/spot, 35° C., 48 hours; read-out: MIC
[5] = system: C. difficile Clind^r 4273; assay: Anaerobic agar dilution, Wilkens-Chalgren agar; type: cell-based; details: Clostridioides difficile; anaerobic, inoculum 10^6 cfu/spot, 35° C., 48 hours; read-out: MIC
C. difficile Fox^r 4380 = assay: Anaerobic agar dilution, Wilkens-Chalgren agar; type: cell-based; details: Clostridioides difficile; anaerobic, inoculum 10^6 cfu/spot, 35° C., 48 hours; read-out: MIC
[6] = system: Bifidobacterium dentium Fox^r 4427; assay: Anaerobic agar dilution, Wilkens-Chalgren agar; type: cell-based; details: 48 h
[7] = system: Bacteroides fragilis Met^r . Pen^r 4324; assay: Anaerobic agar dilution, Wilkens-Chalgren agar; type: cell-based; details: anaerobic, inoculum 10^6 cfu/spot, 35° C., 48 hours, read-out: MIC
B. fragilis Pen^r 3214 = assay: Anaerobic agar dilution, Wilkens-Chalgren agar; type: cell-based; details: Bacteroides fragilis; anaerobic, inoculum 10^6 cfu/spot, 35° C., 48 hours; read-out: MIC
[8] = system: B. fragilis Clind^r, Fox^r, Tet^r 4360; assay: Anaerobic agar dilution, Wilkens-Chalgren agar; type: cell-based; details: Bacteroides fragilis; anaerobic, inoculum 10^6 cfu/spot, 35° C., 48 hours; read-out: MIC
[9] = system: B. fragilis NCCLS control strain 4419; assay: Anaerobic agar dilution, Wilkens-Chalgren agar; type: cell-based; details: Bacteroides fragilis; anaerobic, inoculum 10^6 cfu/spot, 35° C., 48 hours; read-out: MIC
[10] = system: B. distasonis Pen^r, Fox^r, Clind^r 4361; assay: Anaerobic agar dilution, Wilkens-Chalgren agar; type: cell-based; details: Parabacteroides distasonis; anaerobic, inoculum 10^6 cfu/spot, 35° C., 48 hours; read-out: MIC
[11] = system: B. distasonis Pen^r, Fox^r 3445; assay: Anaerobic agar dilution, Wilkens-Chalgren agar; type: cell-based; details: Parabacteroides distasonis, 48 h
B. ovatus Pen^r 3248 = assay: Anaerobic agar dilution, Wilkens-Chalgren agar; type: cell-based; details: Bacteroides ovatus; anaerobic, inoculum 10^6 cfu/spot, 35° C., 48 hours; read-out: MIC
[12] = system: B. thetalotamicron Clind^r 4362; assay: Anaerobic agar dilution, Wilkens-Chalgren agar; type: cell-based; details: anaerobic, inoculum 10^6 cfu/spot, 35° C., 48 hours; read-out: MIC
[13] = system: B. thetalotamicron Clind^r, NCCLS control strain 4420; assay: Anaerobic agar dilution, Wilkens-Chalgren agar; type: cell-based; details: anaerobic, inoculum 10^6 cfu/spot, 35° C., 48 hours; read-out: MIC
B. asaccharolyticus 4271 = assay: Anaerobic agar dilution, Wilkens-Chalgren agar; type: cell-based; details: Porphyromonas asaccharolytica, 4271; anaerobic, inoculum 10^6 cfu/spot, 35° C., 48 hours; read-out: MIC
[14] = system: Fusobacterium mortiferum Fox^r 3345; assay: Anaerobic agar dilution, Wilkens-Chalgren agar; type: cell-based; details: anaerobic, inoculum 10^6 cfu/spot, 35° C., 48 hours, read-out: MIC
[15] = system: Veillonella alcalescens 1952; assay: Anaerobic agar dilution, Wilkens-Chalgren agar; type: cell-based; details: Veillonella parvula, 1952; anaerobic, inoculum 10^6 cfu/spot, 35° C., 48 hours; read-out: MIC
[16] = system: S. aureus Gm^r Meth^r 4310; assay: Agar dilution, trypticase soy agar; details: Staphylococcus aureus, 20 h
E. coli TEM 2+ 4351 [17] = assay: Agar dilution, trypticase soy agar; details: Escherichia coli, 20 h
E. coli TEM 2+ DC2 4352 = assay: Agar dilution, trypticase soy agar; details: Escherichia coli, 20 h
E. coli 2891 [18] = assay: Agar dilution, trypticase soy agar; details: Escherichia coli, 2891, 20 h
Sal. typhimurium 3860 [19] = assay: Agar dilution, trypticase soy agar; details: Salmonella enterica, 20 h
Ent. cloacae P99+ 2646 = assay: Agar dilution, trypticase soy agar; details: Enterobacter cloacae, 20 h
Ent. cloacae P99- 2647 [20] = assay: Agar dilution, trypticase soy agar; details: Enterobacter cloacae, P992647, 20 h
K. pneumoniae K1+ 4354 = assay: Agar dilution, trypticase soy agar; details: Klebsiella pneumoniae, 20 h
K. pneumoniae 4005 = assay: Agar dilution, trypticase soy agar; details: Klebsiella pneumoniae, 4005, 20 h
Prot. vulgaris 2829 [21] = assay: Agar dilution, trypticase soy agar; details: Proteus vulgaris, 2829, 20 h
Prot. morganii Sm^r 2833 = assay: Agar dilution, trypticase soy agar; details: Morganella morganii, 20 h
[22] = system: Prot. mirabilis Gm^r 2830; assay: Agar dilution, trypticase soy agar; details: Proteus mirabilis, 20 h
[23] = system: Ps. aeruginosa RPL11+ 3350; assay: Agar dilution, trypticase soy agar; details: Pseudomonas aeruginosa, 20 h
Ser. marcescens 2840 [24] = assay: Agar dilution, trypticase soy agar; details: Serratia marcescens, 2840, 20 h
Staph. aureus 2865 = assay: Agar dilution, antagonist-free medium; details: Staphylococcus aureus, 2865, 20 h
E. coli TEM 2+ 4351 [25] = assay: Agar dilution, antagonist-free medium; details: Escherichia coli, 20 h
E. coli DC2 4353 = assay: Agar dilution, antagonist-free medium; details: Escherichia coli, DC24353, 20 h
E. coli 2891 [26] = assay: Agar dilution, antagonist-free medium; details: Escherichia coli, 2891, 20 h
Sal. typhimurium 3860 [27] = assay: Agar dilution, antagonist-free medium; details: Salmonella enterica, 20 h
Ent. cloacae P99- 2647 [28] = assay: Agar dilution, antagonist-free medium; details: Enterobacter cloacae, P992647, 20 h
Prot. vulgaris 2829 [29] = assay: Agar dilution, antagonist-free medium; details: Proteus vulgaris, 2829, 20 h
Ps. aeruginosa 4279 = assay: Agar dilution, antagonist-free medium; details: Pseudomonas aeruginosa, 4279, 20 h
Ser. marcescens 2840 [30] = assay: Agar dilution, antagonist-free medium; details: Serratia marcescens, 2840, 20 h

CO[C@@]1(NC(=O)Cc2cccs2)C(=O)N2C(C(=O)O)=C(COC(N)=O)CS[C@@H]21 [CEFOXITIN, Cefoxitin, reference compound]
MIC [1]: 0.015 µg/mL (≈ 0.0351 µM) | MIC (Eubacterium limosum 3344): 1 µg/mL (≈ 2.34 µM) | MIC [2]: 0.06 µg/mL (≈ 0.14 µM) | MIC [3]: 1 µg/mL (≈ 2.34 µM) | MIC [4]: 1 µg/mL (≈ 2.34 µM) | MIC (C. perfringens 2237): 2 µg/mL (≈ 4.68 µM) | MIC (C. perfringens 3508): 0.25 µg/mL (≈ 0.585 µM) | MIC (C. perfringens 3509): 0.25 µg/mL (≈ 0.585 µM) | MIC (C. perfringens 3510): 0.5 µg/mL (≈ 1.17 µM) | MIC (C. perfringens 3511): 1 µg/mL (≈ 2.34 µM) | MIC (C. perfringens 3512): 1 µg/mL (≈ 2.34 µM) | MIC (C. perfringens 3513): 2 µg/mL (≈ 4.68 µM) | MIC (C. ramosum 4272): 32 µg/mL (≈ 74.9 µM) | MIC [5]: 4 µg/mL (≈ 9.36 µM) | MIC (C. difficile Fox^r 4380): 64 µg/mL (≈ 150 µM) | MIC [6]: 64 µg/mL (≈ 150 µM) | MIC [7]: 4 µg/mL (≈ 9.36 µM) | MIC (B. fragilis Pen^r 3214): 16 µg/mL (≈ 37.4 µM) | MIC [8]: 32 µg/mL (≈ 74.9 µM) | MIC [9]: 8 µg/mL (≈ 18.7 µM) | MIC [10]: 32 µg/mL (≈ 74.9 µM) | MIC [11]: 128 µg/mL (≈ 299 µM) | MIC (B. ovatus Pen^r 3248): 32 µg/mL (≈ 74.9 µM) | MIC [12]: 32 µg/mL (≈ 74.9 µM) | MIC [13]: 32 µg/mL (≈ 74.9 µM) | MIC (B. asaccharolyticus 4271): 0.5 µg/mL (≈ 1.17 µM) | MIC [14]: 32 µg/mL (≈ 74.9 µM) | MIC [15]: 1 µg/mL (≈ 2.34 µM) | MIC [16]: > 128 µg/mL | MIC (E. coli TEM 2+ 4351 [17]): 4 µg/mL (≈ 9.36 µM) | MIC (E. coli TEM 2+ DC2 4352): 2 µg/mL (≈ 4.68 µM) | MIC (E. coli 2891 [18]): 64 µg/mL (≈ 150 µM) | MIC (Sal. typhimurium 3860 [19]): 4 µg/mL (≈ 9.36 µM) | MIC (Ent. cloacae P99+ 2646): 128 µg/mL (≈ 299 µM) | MIC (Ent. cloacae P99- 2647 [20]): 8 µg/mL (≈ 18.7 µM) | MIC (K. pneumoniae K1+ 4354): 4 µg/mL (≈ 9.36 µM) | MIC (K. pneumoniae 4005): 2 µg/mL (≈ 4.68 µM) | MIC (Prot. vulgaris 2829 [21]): 4 µg/mL (≈ 9.36 µM) | MIC (Prot. morganii Sm^r 2833): 8 µg/mL (≈ 18.7 µM) | MIC [22]: 4 µg/mL (≈ 9.36 µM) | MIC [23]: > 128 µg/mL | MIC (Ser. marcescens 2840 [24]): 32 µg/mL (≈ 74.9 µM)

N[C@@H]1CONC1=O [D-Cycloserine, D-cycloserine, reference compound]
MIC (Staph. aureus 2865): 2 µg/mL (≈ 19.6 µM) | MIC (E. coli TEM 2+ 4351 [25]): 2 µg/mL (≈ 19.6 µM) | MIC (E. coli DC2 4353): 8 µg/mL (≈ 78.4 µM) | MIC (E. coli 2891 [26]): 4 µg/mL (≈ 39.2 µM) | MIC (Sal. typhimurium 3860 [27]): 4 µg/mL (≈ 39.2 µM) | MIC (Ent. cloacae P99- 2647 [28]): 4 µg/mL (≈ 39.2 µM) | MIC (Prot. vulgaris 2829 [29]): 32 µg/mL (≈ 313 µM) | MIC (Ps. aeruginosa 4279): 16 µg/mL (≈ 157 µM) | MIC (Ser. marcescens 2840 [30]): > 256 µg/mL
